Test results taken from PMC8225628, “Bispecific repurposed medicines targeting the viral and immunological arms of COVID-19” (Scientific Reports, 2021).
“And” between values parts separate entries of the source, which are not always exact repeats. Equal values may be shown once. Read-outs that look alike come from different tables or passages of the source. *1 amine or outer side, *2 acyl side, *3 side chain or, on linkers, in order; H or OH if unused. Where a SMILES comes first, the peptide text is derived from it. Bridges are numbered along the chain shown (N, C = ends). [ ]: non-standard residue; d: D form. The star is where a group is joined. hTyr(3S-OH,4S-OH,3'-OSO3H) = N[C@H](C(=O)O)[C@H](O)[C@@H](O)c1ccc(O)c(OS(=O)(=O)O)c1; Orn(4R-OH,5R-OH) = O=C([C@H](C[C@@H](O)[C@@H](O)N[*:3])N[*:1])[*:2]; Pro(3S-OH,4S-Me) = C[C@H]1CN[C@H](C(=O)O)[C@H]1O; X1 = CCCCCOc1ccc(-c2cc(-c3ccc(C(=O)*)cc3)no2)cc1; Gln(3R-OH) = NC(=O)C[C@@H](O)[C@H](N)C(=O)O; Hyp = O=C(O)[C@@H]1C[C@@H](O)CN1

Key:
[1] = molecular target: SARS-CoV-2 M^pro (Severe acute respiratory syndrome coronavirus 2, UniProt P0DTD1); test: biochemical; settings: for IC50: read-out: M^pro IC50; for inhibition at 10 µM: read-out: M^pro % inhibition at 10 µM
[2] = molecular target: SARS-CoV-2 PL^pro (Severe acute respiratory syndrome coronavirus 2, UniProt P0DTD1); test: biochemical; settings: for inhibition at 10 µM: read-out: PL^pro % inhibition at 10 µM
[3] = ReFRAME hits, >5e-6 = not potent enough to determine an IC50
[4] = ReFRAME hits, >5e-6 = not potent enough to determine an IC50, read-out: PL^pro IC50

CN(C/C=C/C#CC(C)(C)C)Cc1cccc2c(F)cc(F)cc12 [SDZ-880-540]
M^pro % inhibition at 10 µM ([1]; ReFRAME hits): -1%
IC50 [1, 3]: > 5 µM
PL^pro % inhibition at 10 µM ([2]; ReFRAME hits, 10 µM): 15%
IC50 [2, 4]: > 5 µM

CC(=O)[O][Hg][c]1cc(C(C)(C)CC(C)(C)C)ccc1O [acetomeroctol]
PL^pro % inhibition at 10 µM [2]: 7%
IC50 ([2]; read-out: PL^pro IC50): > 5 µM

O=c1cc(-c2ccc(O)c(-c3c(O)cc(O)c4c(=O)cc(-c5ccc(O)cc5)oc34)c2)oc2cc(O)cc(O)c12 [amentoflavone]
inhibition at 10 µM ([1]; ReFRAME hits): 34%
inhibition at 10 µM ([2]; ReFRAME hits, 10 µM): 4%
IC50 ([2]; read-out: PL^pro IC50): > 5 µM

O=C1OC2(c3ccccc31)c1cc(I)c(O)c(I)c1Oc1c2cc(I)c(O)c1I [erythrosine]
inhibition at 10 µM ([1]; ReFRAME hits): 58%
IC50 [2]: > 5 µM
inhibition at 10 µM ([2]; ReFRAME hits, 10 µM): 20%

CO[C@H]1O[C@H](COS(=O)(=O)[O-])[C@@H](O[C@@H]2O[C@@H](C(=O)[O-])[C@@H](O[C@H]3O[C@H](COS(=O)(=O)[O-])[C@@H](O[C@@H]4O[C@H](C(=O)[O-])[C@@H](O[C@H]5O[C@H](COS(=O)(=O)[O-])[C@@H](O)[C@H](O)[C@H]5NS(=O)(=O)[O-])[C@H](O)[C@H]4O)[C@H](OS(=O)(=O)[O-])[C@H]3NS(=O)(=O)[O-])[C@H](O)[C@H]2OS(=O)(=O)[O-])[C@H](O)[C@H]1NS(=O)(=O)[O-].[Na+].[Na+].[Na+].[Na+].[Na+].[Na+].[Na+].[Na+].[Na+].[Na+] [fondaparinux (sodium), reference compound]
M^pro % inhibition at 10 µM ([1]; ReFRAME hits): 80%
IC50 [1, 3]: 2 µM
PL^pro % inhibition at 10 µM ([2]; ReFRAME hits, 10 µM): 23%
IC50 [2, 4]: > 5 µM

Cc1cc(O)c2c(=O)c3c(O)cc(O)c4c5c(O)cc(O)c6c(=O)c7c(O)cc(C)c8c1c2c(c34)c(c78)c65 [hypericin]
inhibition at 10 µM ([2]; ReFRAME hits, 10 µM): 12%
IC50 ([2]; read-out: PL^pro IC50): > 5 µM

[Cl][Hg][Cl] [mercuric chloride]
PL^pro % inhibition at 10 µM ([2]; ReFRAME hits, 10 µM): 16%
IC50 [2, 4]: > 5 µM

CCCCCOc1ccc(-c2cc(-c3ccc(C(=O)N[C@H]4C[C@@H](O)[C@@H](O)NC(=O)[C@@H]5[C@@H](O)[C@@H](C)CN5C(=O)[C@H]([C@H](O)CC(N)=O)NC(=O)[C@H]([C@H](O)[C@@H](O)c5ccc(O)c(OS(=O)(=O)[O-])c5)NC(=O)[C@@H]5C[C@@H](O)CN5C(=O)[C@H]([C@@H](C)O)NC4=O)cc3)no2)cc1.[Na+] [micafungin Sodium, reference compound] (X1-[Orn(4R-OH,5R-OH)]T[Hyp][hTyr(3S-OH,4S-OH,3'-OSO3H)][Gln(3R-OH)][Pro(3S-OH,4S-Me)]; lactam 1-C)
PL^pro % inhibition at 10 µM ([2]; ReFRAME hits, 10 µM): 24%
IC50 [2, 4]: > 5 µM

O=C(N/N=C/c1ccc([N+](=O)[O-])o1)c1cc([N+](=O)[O-])cc([N+](=O)[O-])c1O [nifursol]
inhibition at 10 µM ([1]; ReFRAME hits): 43%
inhibition at 10 µM ([2]; ReFRAME hits, 10 µM): 23%
IC50 ([2]; read-out: PL^pro IC50): > 5 µM

CN1CCCN=C1/C=C/c1cccc(O)c1 [oxantel (pamoate), reference compound]
IC50 [2, 4]: > 5 µM

CN1CCCN=C1/C=C/c1cccc(O)c1.O=C(O)c1cc2ccccc2c(Cc2c(O)c(C(=O)O)cc3ccccc23)c1O [oxantel (pamoate), reference compound]
PL^pro % inhibition at 10 µM ([2]; ReFRAME hits, 10 µM): 11%

Cc1cccnc1NS(=O)(=O)c1ccc(C#Cc2ccc(O)c(C(=O)O)c2)cc1 [susalimod]
inhibition at 10 µM ([1]; ReFRAME hits): 31%
IC50 [1]: > 5 µM
inhibition at 10 µM ([2]; ReFRAME hits, 10 µM): 22%
IC50 ([2]; read-out: PL^pro IC50): > 5 µM

CC(=O)Oc1ccccc1C(=O)OC1OC(=O)c2ccccc21 (centres unmarked) [talosalate]
M^pro % inhibition at 10 µM ([1]; ReFRAME hits): 80%
IC50 [1, 3]: 4 µM
PL^pro % inhibition at 10 µM ([2]; ReFRAME hits, 10 µM): 13%
IC50 [2, 4]: > 5 µM

(-)-epicatechin gallate
PL^pro % inhibition at 10 µM ([2]; ReFRAME hits, 10 µM): 11%
IC50 [2, 4]: > 5 µM

SENNOSIDES [reference compound]
M^pro % inhibition at 10 µM ([1]; ReFRAME hits): 92%
IC50 [1, 3]: 0.7 µM
PL^pro % inhibition at 10 µM ([2]; ReFRAME hits, 10 µM): 72%
IC50 [2, 4]: > 5 µM

[(-)-epicatechin]
PL^pro % inhibition at 10 µM ([2]; ReFRAME hits, 10 µM): 16%
IC50 [2, 4]: > 5 µM

teicoplanin [reference compound]
PL^pro % inhibition at 10 µM ([2]; ReFRAME hits, 10 µM): 88% and 81%
